{"source": "patent US20160367578A1", "about": "“METHODS AND COMPOSITIONS FOR ERADICATING LEUKEMIC CELLS” (priority 2013, published 2016)", "key": {"[1]": {"tested_on": "murine AML cells (MLL-AF9 clone A, MLL-AF9 clone B, HoxA9/Meis1 cells)", "assay": "Viability of murine AML cells in 1:1 mixtures with normal leukocytes exposed to CBX for 16 hours", "type": "cell-based, mouse", "experimental": "Cells were distinguished by Cd45.1/CD45.2 expression and cell viability was determined by % of 7AAD-negative cells, in FACS analysis. (*p<0.01).\nCells were distinguished by CD45.1/CD45.2 expression and cell viability was determined by % of 7AAD-negative cells, in FACS analysis (*p<0.01).\nWe then asked how blockage of gap junction intercellular communication affects AML cells, without additional treatment. […] In order to exclude the possibility of clone specific effects, we have repeated the experiments with a different MLL-AF9 clone, generated independently, and also included HoxA9/Meis1 AML cells that represent a different type of AML."}, "[2]": {"tested_on": "MLL-AF9 cells", "assay": "MLL-AF9 viability under chemotherapy with or w/o MS-5 stromal layer, transwell inserts and CBX (7AAD FACS)", "type": "cell-based, mouse", "source_text": "Viability was detected via GFP expression and 7AAD exclusion.\nTo test this hypothesis, we evaluated the response of MLL-AF9 leukemic cells to chemotherapy in vitro, with and without supporting bone marrow stromal cells using time-lapse video microscopy combined with flow cytometry. […] MS-5 are murine bone-marrow stromal cells that were previously shown to support hematopoietic stem and progenitor cells (Itoh, et al., Experimental Hematology 21, 145-153 (1989) and Schajnovitz, et al., Nature Immunology 12, 391-8 (2011)). […] In order to distinguish between Stromal-leukemic (heterotypic) interactions and leukemic-leukemic (homotypic) interactions, we separated the MLL-AF9 from the stroma by transwell inserts, to restrict heterotypic interactions while allowing homotypic interactions.\nSince adhesion interactions of hematopoietic cells are commonly accompanied with intercellular communication, we then tested the potential role of gap junctions activity in drug resistance. Gap junction intercellular channels, which are homo- and hetero-hexamers of connexin proteins, facilitate intercellular communication between contacting cells via the passage of secondary messengers, such as calcium and cAMP^17."}, "[3]": {"tested_on": "MLL-AF9 cells (murine leukemic cancer stem cells)", "assay": "Colony formation assay (CFU-C) on MLL-AF9 cells", "type": "cell-based, mouse"}, "[4]": {"tested_on": "Mac1 (CD11b, integrin αm) in MLL-AF9 cells", "assay": "Mac1 expression in CBX treated mice leukemic cells", "type": "cell-based, mouse", "conditions": "7AAD-negative MLL-AF9 cells undergoing apoptosis"}, "[5]": {"tested_on": "human AML cell line HL60", "assay": "Neutrophil differentiation (CD66b+/CD14-) by FACS in HL60", "type": "cell-based", "conditions": "HL60, 16 hours"}, "[6]": {"tested_on": "human AML cell line U937", "assay": "Neutrophil differentiation (CD66b+/CD14-) by FACS in U937", "type": "cell-based", "conditions": "U937, 16 hours"}, "[7]": {"tested_on": "human APL cell line HL60", "assay": "HL60 viability (flow cytometry) and colony formation after CBX", "type": "cell-based", "conditions": "viability 16 hours, colony formation 7 days post exposure"}, "[8]": {"tested_on": "MLL-AF9 leukemic cells", "assay": "Apoptosis of MLL-AF9 leukemic cells (7AAD-negative, annexin-V positive)", "type": "cell-based, mouse", "set-up": "apoptosis of leukemic cells, kinetics: dose or concentration left out as unconfirmed", "experimental": "Rate of proliferation for cell populations used is as follows: MLL-AF9: 3 divisions/24 hours; myeloblasts: 3 divisions/24 hours, eLKS: 7 divisions/24 hours.\nThe informational material can include instructions to administer the gap junction blocker and/or agents described herein in a suitable manner, e.g., in a suitable dose, dosage form, or mode of administration. […] The informational material can include instructions for selecting a suitable subject, e.g., a human, e.g., a human suffering from relapsed or refractory acute myeloid leukemia. The informational material of the kits is not limited in its form. In many cases, the informational material, e.g., instructions, is provided in printed matter, e.g., a printed text, drawing, and/or photograph, e.g., a label or printed sheet. However, the informational material can also be provided in other formats, such as Braille, computer readable material, video recording, or audio recording. In another embodiment, the informational material of the kit is a link or contact information, e.g., a physical address, email address, hyperlink, website, or telephone number, where a user of the kit can obtain substantive information about the modulator and/or its use in the methods described herein. Of course, the informational material can also be provided in any combination of formats."}}, "note": "Like-named read-outs stand apart in the source and are kept apart here.", "data": [{"smiles": "CC1(C)[C@@H](OC(=O)CCC(=O)O)CC[C@]2(C)[C@H]3C(=O)C=C4[C@@H]5C[C@@](C)(C(=O)O)CC[C@]5(C)CC[C@@]4(C)[C@]3(C)CC[C@@H]12", "note": "[CBX, Carbenoxolone]", "values": [{"measurement": "eradication of different murine AML cells", "setting": "[1]", "value": "selectively eradicates"}, {"measurement": "eradication of different murine AML cells", "setting": "[1]; listed as Carbenoxolone", "value": "selective eradication"}, {"measurement": "eradication of different murine AML cells", "setting": "[1]; listed as carbenoxolone", "value": "selectively eradicates"}, {"measurement": "stroma-mediated drug resistance", "setting": "[2]; 25 nM cytarabine and 10 nM doxorubicin as chemo, 16 hours", "value": "overcomes stroma-mediated drug resistance"}, {"measurement": "eradication", "setting": "[2]; co-cultures separated with transwell inserts, CBX + chemotherapy", "value": "more than 90%"}, {"measurement": "MLL-AF9 cells eradicated", "setting": "[2]; coculture with MS-5, 100 μM CBX 20 minutes before induction chemotherapy", "value": "~90", "unit": "%"}, {"measurement": "effect on malignant vs. normal immature stem and progenitor cells (CFU-C)", "setting": "[3]; CBX at greater than or equal to 50 μM", "value": "differential effect"}, {"measurement": "effect on murine leukemic cancer stem cells (CFU-C)", "setting": "[3]; increasing concentrations of carbenoxolone", "value": "eradicates murine leukemic cancer stem cells"}, {"measurement": "Mac1 (CD11b) expression", "setting": "[4]", "value": "downregulated"}, {"measurement": "neutrophil differentiation (CD66b+/CD14−)", "setting": "[5]", "value": "induces rapid (within 16 hours) neutrophil differentiation"}, {"measurement": "neutrophil differentiation (CD66b+/CD14−)", "setting": "[6]", "value": "induces rapid (within 16 hours) neutrophil differentiation"}, {"measurement": "sensitivity of HL60", "setting": "[7]", "value": "sensitive"}, {"measurement": "apoptosis of MLL-AF9 leukemic cells", "setting": "[8]; 6, 12 and 20 hours", "value": "rapidly induces apoptosis"}, {"measurement": "cell cycle dependence of CBX-induced leukemia apoptosis", "setting": "[8]; 4 h, 1:1 mixture with highly proliferating normal myeloblasts or expanded LKS cells", "value": "not cell cycle dependent"}, {"measurement": "apoptosis of leukemic cells in 1:1 mixture with BM-MNC", "setting": "[8]; CBX vs PBS control, 4h", "value": "induces apoptosis of leukemic cells"}, {"measurement": "apoptosis of leukemic cells, kinetics", "setting": "[8]; exposure of about […] μM", "value": "selective apoptosis within hours"}]}]}
